Activity calls are given as the source filed them.

What is called AC50 is the midpoint of the concentration-response curve, whichever way the signal moves.

The nature of assay [1]: P. falciparum Dd2 growth inhibitors, dose response, SYBR Green, cherry-picked samples (AID 1159567). Type of assay: functional, cell-based.
Assay [2] deals with T1, Polyadenylate-binding protein 1 (Homo sapiens, UniProt P11940). Nature of the assay: PABP1 MLLE–PAM2 interaction inhibitors, dose response, miRNA deadenylation inhibitor project, biochemical, fluorescence polarization, Cy5-PAM2 peptide, secondary (AID 602260). Type of assay: functional. The settings on record: read-out: IC50_Mean. For orientation: Fluorescence polarisation rises when a labelled molecule tumbles more slowly, as on binding a larger partner.

In assay [3] the target is T1, Polyadenylate-binding protein 1. Nature of the assay: PABP1 MLLE–PAM2 binding inhibitor potency, dose response, biochemical, fluorescence polarization, FITC-PAM2 peptide (AID 602259). Type of assay: functional. To be noted: read-out: IC50_Mean.
Assay [4] in a line: Luminescence Cell-Based Dose Confirmation HTS to Identify Activators of 5'UTR Stem-Loop Driven Alpha-Synuclein mRNA Translation in H4 Neuroglioblastoma Cells. [Related pubchem assays: 1829 (Project Summary), 1814 (Primary HTS)]. It counts as functional.
Assay [5] in a line: Luminescence Cell-Based Dose Response HTS to Identify Activators of Luciferase Translation or Activity in H4 […] Cells. [Related pubchem assays: 1829 (Project Summary), 1814 (Primary HTS)]. Type of assay: functional.
Assay [6] relates to H4. Nature of the assay: Luminescence Cell-Based Dose Response HTS to Identify Activators of 5'UTR Stem-Loop Driven Prion Protein mRNA Translation in H4 Neuroglioblastoma Cells. [Related pubchem assays: 1829 (Project Summary), 1814 (Primary HTS)]. Type of assay: functional. To be noted: Homo sapiens.
The target in assay [7] is T2, Corticotropin-releasing factor receptor 2/Corticotropin-releasing factor-binding protein (Homo sapiens, UniProt P24387+Q13324).
T2 sequence (Q13324 whole entry): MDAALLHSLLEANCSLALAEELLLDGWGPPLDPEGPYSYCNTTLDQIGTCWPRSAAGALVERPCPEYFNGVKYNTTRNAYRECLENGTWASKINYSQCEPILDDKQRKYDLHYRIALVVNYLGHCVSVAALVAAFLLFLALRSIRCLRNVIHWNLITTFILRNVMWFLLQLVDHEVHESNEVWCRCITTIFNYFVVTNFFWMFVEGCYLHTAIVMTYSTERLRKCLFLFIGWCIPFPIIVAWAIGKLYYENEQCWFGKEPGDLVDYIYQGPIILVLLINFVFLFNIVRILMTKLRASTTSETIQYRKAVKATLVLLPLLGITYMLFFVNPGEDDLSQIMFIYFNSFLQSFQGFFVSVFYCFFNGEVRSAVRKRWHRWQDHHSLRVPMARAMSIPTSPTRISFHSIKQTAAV
T2 sequence (P24387 whole entry): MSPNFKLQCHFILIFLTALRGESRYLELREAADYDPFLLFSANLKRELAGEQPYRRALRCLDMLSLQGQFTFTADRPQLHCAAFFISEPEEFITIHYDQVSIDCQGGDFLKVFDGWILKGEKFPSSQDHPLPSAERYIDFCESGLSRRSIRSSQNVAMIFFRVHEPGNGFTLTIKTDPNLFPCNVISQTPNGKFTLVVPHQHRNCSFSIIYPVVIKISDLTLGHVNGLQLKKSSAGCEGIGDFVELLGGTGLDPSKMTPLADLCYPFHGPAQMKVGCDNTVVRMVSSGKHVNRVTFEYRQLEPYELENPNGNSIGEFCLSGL
Nature of the assay: Dose Response confirmation of uHTS hits for small molecule antagonists of the CRF-binding protein and CRF-R2 receptor complex. The settings on record: read-out: IC50_Mean. Type of assay: functional.

For assay [8], the target named is T2, Corticotropin-releasing factor receptor 2/Corticotropin-releasing factor-binding protein. Nature of the assay: activators of CRF receptor 2 with binding protein – uHTS hits, confirmation (AID 602473). The settings on record: read-out: EC50_Mean. It counts as functional.
Assay [9] deals with Cytochrome P450 2C19 (Homo sapiens, UniProt P33261). Nature of the assay: Cytochrome panel assay with activity outcomes. Panel member name: p450-cyp2c19 Compounds with AC50 equal or less than 10 uM are considered active. Type of assay: functional. To be noted: read-out: AC50.
For assay [10], the target named is T3, Fatty acid synthase (Homo sapiens, UniProt P49327). Nature of the assay: FAS thioesterase domain inhibitors, dose response, biochemical, endpoint fluorescence intensity, uHTS hits (AID 624327).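 Also: fluorescence from hydrolysis of an O-methyl fluorescein acyl ester substrate by the enzyme.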 It counts as functional.
In assay [11] the target is T3, Fatty acid synthase. Nature of the assay: FAS thioesterase domain inhibitors, dose response, biochemical, kinetic fluorescence intensity (AID 624326).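 Also: rate of fluorescence rise from hydrolysis of a fluorogenic O-methyl fluorescein ester substrate.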 Type of assay: functional.
Assay [12] is described as follows: NIH-3T3 fibroblast cytotoxicity, dose response, cytotoxicity control, cell-based, fluorescence, Alamar Blue, secondary assay (AID 2327).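 Also: NIH-3T3 mouse fibroblasts cultured with fluconazole at 8 µg/mL.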 It counts as functional.
A short description of assay [13]: C. albicans growth with fluconazole, confirmation, fluorescence, retest (AID 2467). Type of assay: functional, cell-based.
The target of assay [14] is T4, Calpain-2 catalytic subunit (Sus scrofa, UniProt P43367).
T4 sequence (P43367 whole entry): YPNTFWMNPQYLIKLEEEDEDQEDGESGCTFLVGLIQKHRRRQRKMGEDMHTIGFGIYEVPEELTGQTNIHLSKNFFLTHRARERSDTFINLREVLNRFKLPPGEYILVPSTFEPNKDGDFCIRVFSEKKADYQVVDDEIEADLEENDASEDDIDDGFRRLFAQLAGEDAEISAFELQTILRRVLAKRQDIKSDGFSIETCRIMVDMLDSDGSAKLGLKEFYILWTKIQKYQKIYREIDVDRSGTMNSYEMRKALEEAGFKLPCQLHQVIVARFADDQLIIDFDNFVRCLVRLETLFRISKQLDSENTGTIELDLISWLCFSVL
Nature of the assay: pig calpain II inhibitor potency, dose response, biochemical, fluorogenic peptide substrate (AID 1420). Type of assay: functional.

In assay [15] the target is Nonstructural protein 1 (Influenza A virus, UniProt Q194T2). Type of assay: functional, Influenza A virus (A/California/07/2009(H1N1)).
The target of assay [16] is T5, High affinity choline transporter 1 (Homo sapiens, UniProt Q9GZV3).
T5 sequence (Q9GZV3 whole entry): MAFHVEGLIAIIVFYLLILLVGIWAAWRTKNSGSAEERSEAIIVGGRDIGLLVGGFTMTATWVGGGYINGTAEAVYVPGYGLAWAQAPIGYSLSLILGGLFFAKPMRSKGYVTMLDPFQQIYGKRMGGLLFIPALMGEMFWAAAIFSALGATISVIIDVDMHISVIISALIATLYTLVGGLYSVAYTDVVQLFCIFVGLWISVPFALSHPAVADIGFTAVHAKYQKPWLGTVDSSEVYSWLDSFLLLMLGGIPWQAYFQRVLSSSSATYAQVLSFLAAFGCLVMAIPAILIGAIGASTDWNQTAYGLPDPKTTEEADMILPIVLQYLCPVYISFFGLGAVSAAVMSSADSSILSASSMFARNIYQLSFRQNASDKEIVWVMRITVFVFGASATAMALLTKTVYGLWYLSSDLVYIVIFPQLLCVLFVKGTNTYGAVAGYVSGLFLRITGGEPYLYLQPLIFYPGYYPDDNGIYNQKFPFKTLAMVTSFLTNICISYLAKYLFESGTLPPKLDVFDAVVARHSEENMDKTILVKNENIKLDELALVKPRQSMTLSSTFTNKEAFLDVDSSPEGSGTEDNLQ
Nature of the assay: CHT inhibitors, dose response, cell-based, 5-point CRC, membrane potential dye (AID 504840). It counts as functional.

T1 sequence (P11940 whole entry): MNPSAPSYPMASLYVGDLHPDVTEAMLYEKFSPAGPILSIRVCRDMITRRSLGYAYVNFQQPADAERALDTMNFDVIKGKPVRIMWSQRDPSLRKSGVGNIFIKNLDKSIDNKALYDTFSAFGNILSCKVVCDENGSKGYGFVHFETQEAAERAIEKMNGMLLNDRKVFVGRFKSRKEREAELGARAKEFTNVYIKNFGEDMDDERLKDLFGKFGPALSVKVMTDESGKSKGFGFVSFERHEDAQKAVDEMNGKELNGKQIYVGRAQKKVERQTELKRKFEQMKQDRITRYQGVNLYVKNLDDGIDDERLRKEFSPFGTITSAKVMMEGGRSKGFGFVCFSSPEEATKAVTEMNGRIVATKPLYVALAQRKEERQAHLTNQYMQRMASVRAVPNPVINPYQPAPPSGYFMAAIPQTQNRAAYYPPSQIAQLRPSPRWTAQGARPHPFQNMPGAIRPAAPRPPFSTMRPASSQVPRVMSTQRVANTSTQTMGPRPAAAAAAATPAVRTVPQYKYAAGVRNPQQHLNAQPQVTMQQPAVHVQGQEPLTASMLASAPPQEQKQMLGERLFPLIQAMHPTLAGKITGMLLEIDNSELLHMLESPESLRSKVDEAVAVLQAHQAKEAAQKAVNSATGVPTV
T3 sequence (P49327 whole entry, the tested form may be a part): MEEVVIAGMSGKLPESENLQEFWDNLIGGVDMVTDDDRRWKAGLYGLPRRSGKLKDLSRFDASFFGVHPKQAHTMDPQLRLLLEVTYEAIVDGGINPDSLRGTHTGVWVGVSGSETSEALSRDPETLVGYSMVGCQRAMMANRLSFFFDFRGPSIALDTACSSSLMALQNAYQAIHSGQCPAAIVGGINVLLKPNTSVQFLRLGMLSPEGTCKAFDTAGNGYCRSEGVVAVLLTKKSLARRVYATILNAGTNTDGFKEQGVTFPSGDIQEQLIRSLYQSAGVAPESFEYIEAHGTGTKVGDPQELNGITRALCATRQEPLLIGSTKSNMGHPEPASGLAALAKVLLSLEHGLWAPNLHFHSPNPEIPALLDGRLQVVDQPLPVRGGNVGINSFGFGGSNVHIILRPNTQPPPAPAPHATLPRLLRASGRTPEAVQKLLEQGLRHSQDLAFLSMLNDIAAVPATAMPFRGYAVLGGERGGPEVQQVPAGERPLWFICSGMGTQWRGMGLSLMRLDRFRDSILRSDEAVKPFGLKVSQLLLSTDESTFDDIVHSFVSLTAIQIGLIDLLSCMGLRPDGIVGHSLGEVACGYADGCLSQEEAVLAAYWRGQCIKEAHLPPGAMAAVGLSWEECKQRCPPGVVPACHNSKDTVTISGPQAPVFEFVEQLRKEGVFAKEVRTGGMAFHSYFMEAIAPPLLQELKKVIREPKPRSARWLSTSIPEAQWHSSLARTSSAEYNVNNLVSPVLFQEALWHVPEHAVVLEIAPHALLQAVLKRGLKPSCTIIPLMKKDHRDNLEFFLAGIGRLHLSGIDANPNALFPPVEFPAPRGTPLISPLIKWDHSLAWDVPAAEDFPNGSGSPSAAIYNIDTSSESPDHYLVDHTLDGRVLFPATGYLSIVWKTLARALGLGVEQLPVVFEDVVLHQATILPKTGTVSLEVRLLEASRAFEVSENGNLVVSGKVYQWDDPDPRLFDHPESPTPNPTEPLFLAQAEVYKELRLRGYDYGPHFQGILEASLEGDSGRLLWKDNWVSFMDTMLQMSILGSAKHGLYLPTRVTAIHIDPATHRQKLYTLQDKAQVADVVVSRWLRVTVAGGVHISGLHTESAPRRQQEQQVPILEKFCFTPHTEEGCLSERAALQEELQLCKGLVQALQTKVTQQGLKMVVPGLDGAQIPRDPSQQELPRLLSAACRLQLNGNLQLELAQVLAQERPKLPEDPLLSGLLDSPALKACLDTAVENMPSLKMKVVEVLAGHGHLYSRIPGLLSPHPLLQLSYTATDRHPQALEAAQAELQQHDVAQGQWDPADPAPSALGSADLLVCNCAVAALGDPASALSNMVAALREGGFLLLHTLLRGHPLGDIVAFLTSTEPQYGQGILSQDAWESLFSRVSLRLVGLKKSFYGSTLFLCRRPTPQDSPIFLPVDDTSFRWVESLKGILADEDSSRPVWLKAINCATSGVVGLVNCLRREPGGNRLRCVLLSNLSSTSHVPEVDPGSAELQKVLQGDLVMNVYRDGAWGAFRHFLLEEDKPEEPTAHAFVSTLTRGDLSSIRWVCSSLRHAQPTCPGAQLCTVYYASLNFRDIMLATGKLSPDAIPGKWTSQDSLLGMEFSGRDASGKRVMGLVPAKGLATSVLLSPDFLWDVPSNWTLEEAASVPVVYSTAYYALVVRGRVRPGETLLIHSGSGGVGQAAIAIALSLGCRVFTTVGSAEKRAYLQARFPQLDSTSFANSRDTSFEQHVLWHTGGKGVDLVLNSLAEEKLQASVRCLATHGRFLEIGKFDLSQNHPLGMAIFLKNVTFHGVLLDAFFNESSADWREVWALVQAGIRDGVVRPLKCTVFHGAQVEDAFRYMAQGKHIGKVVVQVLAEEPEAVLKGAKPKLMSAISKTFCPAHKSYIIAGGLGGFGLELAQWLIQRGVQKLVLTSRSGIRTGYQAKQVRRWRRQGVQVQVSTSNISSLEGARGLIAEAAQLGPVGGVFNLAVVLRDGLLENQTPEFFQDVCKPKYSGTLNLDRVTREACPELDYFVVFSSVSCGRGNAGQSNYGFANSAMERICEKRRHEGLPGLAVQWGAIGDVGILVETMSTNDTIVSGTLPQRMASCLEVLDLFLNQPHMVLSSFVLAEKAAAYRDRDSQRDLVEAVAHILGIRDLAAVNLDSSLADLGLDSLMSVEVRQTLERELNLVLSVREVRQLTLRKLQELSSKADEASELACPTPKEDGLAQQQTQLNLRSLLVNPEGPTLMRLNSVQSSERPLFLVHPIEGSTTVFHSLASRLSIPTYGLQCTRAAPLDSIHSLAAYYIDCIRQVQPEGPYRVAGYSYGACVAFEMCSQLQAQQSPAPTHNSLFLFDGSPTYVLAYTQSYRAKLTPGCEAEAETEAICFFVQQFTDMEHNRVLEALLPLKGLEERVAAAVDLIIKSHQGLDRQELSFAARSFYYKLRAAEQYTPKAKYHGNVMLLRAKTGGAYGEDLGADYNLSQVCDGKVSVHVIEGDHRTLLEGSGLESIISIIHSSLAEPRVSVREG
Chain of Nonstructural protein 1 (Q194T2 whole entry): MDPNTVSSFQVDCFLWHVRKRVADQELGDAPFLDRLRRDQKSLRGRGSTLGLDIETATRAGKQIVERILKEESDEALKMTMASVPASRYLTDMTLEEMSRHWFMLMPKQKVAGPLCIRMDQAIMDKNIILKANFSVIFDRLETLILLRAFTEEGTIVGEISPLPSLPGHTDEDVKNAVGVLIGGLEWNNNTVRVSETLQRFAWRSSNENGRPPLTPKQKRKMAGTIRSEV
Chain of Cytochrome P450 2C19 (P33261 whole entry, the tested form may be a part): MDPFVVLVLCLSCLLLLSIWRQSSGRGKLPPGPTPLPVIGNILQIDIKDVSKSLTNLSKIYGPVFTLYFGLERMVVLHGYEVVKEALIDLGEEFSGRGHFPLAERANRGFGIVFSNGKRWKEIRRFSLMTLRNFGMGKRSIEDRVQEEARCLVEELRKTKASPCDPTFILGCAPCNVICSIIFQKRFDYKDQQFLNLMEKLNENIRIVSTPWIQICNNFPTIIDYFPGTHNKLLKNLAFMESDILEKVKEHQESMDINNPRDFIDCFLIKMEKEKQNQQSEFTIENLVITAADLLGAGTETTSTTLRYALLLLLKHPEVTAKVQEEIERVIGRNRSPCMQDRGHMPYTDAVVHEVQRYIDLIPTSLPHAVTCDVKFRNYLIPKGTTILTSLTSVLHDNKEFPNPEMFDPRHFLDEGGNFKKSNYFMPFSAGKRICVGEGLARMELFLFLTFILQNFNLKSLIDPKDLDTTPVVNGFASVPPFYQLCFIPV

As to `COc1ccc2c3c(n(C)c2c1)[C@@H](CO)N(S(C)(=O)=O)CC31CCN(C(=O)CN(C)C)CC1`, the AC50 in assay [1] is 4.28 µM (active).
Same read-out and setting: with `O=C(C1CCCC1)N1CC(=O)N2[C@H](CO)[C@@H](c3ccc(C#CCc4ccccc4)cc3)[C@@H]2C1` the figure was 6.57 µM (active); with `COc1ccc2c3c([nH]c2c1)[C@H](CO)N(Cc1cccc(Cl)c1)CC31CCN(C(C)=O)CC1`, 4.26 µM (active).
Take `Cc1ccc(S(=O)(=O)Nc2nc3ccccc3nc2Nc2cccc(S(=O)(=O)N3CCCC3)c2)cc1`: the IC50 in assay [2] and in [3] was > 66 µM (inactive) in each case.
In the case of `C/C(=N\NC(=O)CN1CCCCC1)c1cccc([N+](=O)[O-])c1`, the EC50 in assay [4] was 13.6 µM (active); in assay [5], 9.5 µM (active); in assay [6], 26.9 µM (active).
Turning to `CCCN(C)C[C@@H]1Oc2cc(C#Cc3ccccc3)ccc2S(=O)(=O)N([C@@H](C)CO)C[C@@H]1C`, the AC50 in assay [1] was 4.59 µM (active).
For the molecule `Cc1c(-c2ccc(Cl)cc2)[n+]([O-])c(-c2ccccc2)c[n+]1[O-]`, the EC50 in assay [4] is > 120 µM (not active); in assay [5] it was > 120 µM (not active); in assay [6], > 120 µM (not active); in [8], > 53 µM (inactive). Further, in assay [7], the IC50 was > 47.1 µM (inactive).
For `COc1ccc(-c2nn(-c3ccccc3)cc2/C=N/NC(=O)c2ccc3c(c2)OCO3)cc1`, the EC50 is 18.3 µM (active) in assay [4], 12.2 µM (active) in assay [5] and 18.5 µM (active) in assay [6]. Also, in [9], the concentration at half-maximal activity (AC50) is 2.24 µM (inconclusive).
As for `CCC(=O)N1CCC2(CC1)CN(Cc1ccc(Cl)cc1)[C@@H](CO)c1[nH]c3cc(OC)ccc3c12`, the AC50 in assay [1] was 3.79 µM (active).
With `CCN(C(=O)COC(=O)c1cc([N+](=O)[O-])ccc1N1CCOCC1)c1ccccc1`, the IC50 in assay [10] was 1.94 µM (active); in assay [11], 1.86 µM (active).
As to `Cn1c(=O)c([N+](=O)[O-])c(N2CCN(Cc3ccc4c(c3)OCO4)CC2)c2ccccc21`, the IC50 in assay [10] was 2.71 µM (active); in [11], 4.73 µM (active).
As to `C[C@H](O)[C@H](O)[C@H]1CNc2nc(N)[nH]c(=O)c2N1`, the IC50 in assay [2] and in [3] was > 66 µM (inactive) in each case.
Consider `CC(C)(C)NC(=O)NC(=O)COC(=O)Cc1ccc(Cl)cc1Cl`, for which the IC50 in [10] was 9.97 µM (active); in assay [11], 9.75 µM (active).
Turning to `O=C1NC(=O)N2CCSC2(Cc2ccccc2)N1` (stereo not given), the IC50 in assay [2] and in assay [3] was > 66 µM (inactive) throughout.
Turning to `CCC(=O)N1CCC2(CC1)CN(C(=O)Nc1ccc(F)cc1)[C@@H](CO)c1c2c2ccc(OC)cc2n1C`, the AC50 in [1] is 4.37 µM (active).
Same read-out and setting: as for `CO[C@@H]1CN(C)C(=O)c2ccc(NC(=O)c3nc4ccccc4s3)cc2OC[C@H](C)N(Cc2cccnc2)C[C@@H]1C`, the figure is 5 µM (active).
For `CC(Oc1ccc2c(c1)c1ccnc3c4ccccc4c(=O)n2c13)C(=O)NCCN1CCOCC1` (stereo not given), the EC50 is 19.6 µM (active) in assay [4], 12.5 µM (active) in assay [5] and > 120 µM (not active) in [6].
For the molecule `Clc1ccc(SCc2cn3ccsc3n2)cc1`, the EC50 is 89.9 µM (active) in [4], 21 µM (active) in assay [5] and > 120 µM (not active) in [6].
`CN1CCN(NC(=O)CN2C(=O)S/C(=C\c3c(Cl)cccc3Cl)C2=O)CC1`: the IC50 in assay [2] and in assay [3] was > 66 µM (inactive) in each case.
Turning to `O=[N+]([O-])c1ccc(S(=O)(=O)Nc2nnc(C3CCCCC3)s2)cc1`, the IC50 was 7.87 µM (active) in assay [10] and 7.54 µM (active) in assay [11].
Turning to `CCOc1ccc(-c2nc(C)c(C(C)=O)n2O)cc1`, the EC50 in assay [4] is 14.1 µM (active); in [5], 9.13 µM (active); in assay [6] it was 8.13 µM (active).
Regarding `O=C1c2ccccc2C(=O)c2c1cccc2N1CCCC1`, the EC50 is 55.6 µM (active) in [12] and > 38 µM (not active) in [13]. The results for the IC50 in assay [14] and in [15] were 14.6 µM (not active) and 7.3 µM (active), respectively.
Regarding `COc1ccc(C2CC(=O)Oc3c(C(CCN4CCCCC4)c4ccc(N(C)C)cc4)c(OC)cc(OC)c32)cc1` (stereo not given), the IC50 in assay [15] is 18 µM (active); in [16] it was 14.5 µM (active).
As for `O=C1OC(c2ccccc2)=NC12CC2c1ccc(Cl)cc1` (stereo not given), the IC50 in assay [10] is 0.293 µM (active); in [11], 0.238 µM (active).
On to `CC(C)(C)OC(=O)NCCCC[C@H](NC(=O)c1[nH]cnc1C(=O)Nc1ccccc1)C(=O)OC(C)(C)C`, for which the IC50 in assay [10] was 2.63 µM (active); in assay [11], 3.01 µM (active).
`C[C@H]1CN([C@@H](C)CO)S(=O)(=O)c2ccc(C#Cc3ccncc3)cc2O[C@@H]1CN(C)S(=O)(=O)c1ccc(F)cc1`: the AC50 in assay [1] was 3.9 µM (active).
Take `Cc1ccc(C(=O)c2nc3c(n2O)CCCC3)cc1`: the EC50 in assay [4] is > 120 µM (not active); in [5] it was > 120 µM (not active); in assay [6], 25.7 µM (active).
Turning to `CN1c2ccc(-c3cccc(F)c3)cc2[C@@H]2[C@@H](CCN2C(=O)C2CC2)[C@@H]1CO`, the concentration at half-maximal activity (AC50) in assay [1] is 16.8 µM (active).
In the case of `Cc1nc(CCNC(=O)CC2C(=O)NCCN2Cc2ccccc2)sc1C` (stereo not given), the IC50 in [2] and in assay [3] was > 66 µM (inactive) throughout.
With `CCC(CC)COC(=O)C1=C(C)NC(=O)NC1c1ccc([N+](=O)[O-])cc1` (stereo not given), the results for the IC50 in assay [10] and in [11] were 4.35 µM (active) and 5.94 µM (active), respectively.
Take `CC(C)N1C(=O)S/C(=C\c2ccc(-c3ccc(Cl)c(C(=O)O)c3)o2)C1=O`: the IC50 in [10] is 5.26 µM (active); in assay [11] it was 5.51 µM (active).

The values are drawn from ChEMBL document CHEMBL1201862, “PubChem BioAssay data set” (2004).
